Laboratory results taken from patent publication US12427151B2, “Compositions and method of treating cancer” (The Regents of the University of California, priority 2017, dated 2025).
In brackets after ≈: the same amount, converted by molar mass.

What was measured:
M. luteus ATCC4698 = assay: MBC determination; format: cell-based; details: Micrococcus luteus, 3-log reduction, 24 hour, 37° C., half strength MHB in PBS
[1] = tested on: S. epidermidis (ATCC12228); assay: BrdU incorporation assay in bacteria; format: cell-based; details: 6-HAP 25 μg/mL, 60 min
Description: (§1) (a) Time course killing of GAS in THB containing 6-HAP (25 μg/mL), mitomycin C (5 μg/mL), or LL-37 (10 μM). At each indicated time point, live GAS in the media was measured by counting CFU on an agar plate. The data represent mean±SE of four individual experiments. (b) Membrane permeability of GAS incubated in THB containing 6-HAP (25 μg/mL), mitomycin C (5 μg/mL) and LL-37 (10 μM) for 1 hr. The bacteria with compromised plasma membranes (Red) can be distinguished from those with intact membranes (Green). (c) BrdU incorporation into nascent DNA of GAS after incubation with 6-HAP (25 μg/mL) or mitomycin C (5 μg/mL) in THB containing BrdU (10 μM) for 30 or 60 min. (d) BrdU incorporation into nascent DNA of S. epidermidis ATCC12228 after incubation with 6-HAP (25 μg/mL) or mitomycin C (5 μg/mL) in THB containing BrdU (10 μM) for 60 min. The data represent mean±SE of five individual experiments (*P<0.05 and **P<0.01 by Student's t-test vs vehicle control). (e-f) Capacity of 6-HAP to block in vitro DNA extension by Klenow fragment polymerase. […] Extension reaction was analyzed on a 20% acrylamide gel by electrophoresis (f). […] GAS survival was measured by counting CFU. […]
BrdU incorporation assay. […] BrdU incorporation into nascent DNA was measured in a time-dependent manner using BrdU incorporation assay kit (Roche) according to the manual.

[2] = tested on: Pam212 squamous cell carcinoma; assay: Cell proliferation assay (BrdU incorporation); format: cell-based, mouse; details: Pam212, 4-hr incubation
Description: (a-b) Selective antiproliferative activity of 6-HAP against Pam212 squamous cell carcinoma, but not against normal keratinocytes. BrdU incorporation into Pam212 cells (b) or NHEKs (b) after 4-hr or 24-hr incubation, respectively, in suitable media containing indicated concentrations of 6-HAP or mitomycin C (10 μg/mL) (a). (c) Expression of mARC1 and mARC2 in NHEKs, squamous cell carcinoma (Pam212), melanoma (B16F10) and lymphoma cell lines (L5178). To compare relative expression level in each cells, data was shown as relative to GAPDH expression. (d) Expression of mARC1 and mARC2 in NHEKs treated with control siRNA, mARCI siRNA and mARC2 siRNA. (e) Effect of gene silencing with mARC1 and mARC2 siRNA on sensitivity to 6-HAP in NHEKs. NHEKs treated with each siRNA were incubated for 48 hrs and then incubated with 10 μg/mL of 6-HAP for 24 hrs.
Cell culture and cell proliferation assay. B16F10 mouse melanoma, Pam212, L5178 and YAC-1 mouse […] cell lines were obtained from American Type Culture Collection. […] After 4-hr (tumor cell lines) or 24-hr (NHEK) incubation with 6-HAP, proliferative activity of cells was colorimetrically determined by monitoring BrdU incorporation with Cell Proliferation kit according to the manual (Roche).

[3] = tested on: Klenow fragment (exo) DNA polymerase; assay: In vitro DNA polymerization assay; format: biochemical; details: cell free system, in the presence of 6-HAP
Description: as §1, with “min.” for “min. The data represent mean±SE of five individual experiments (*P<0.05 and **P<0.01 by Student's t-test vs vehicle control). (e-f) Capacity of 6-HAP to block in vitro DNA extension by Klenow fragment polymerase.”
In vitro DNA polymerization assay. […] Fluorescence was visualized with Oddyssey Imaging System (LI-COR Biosciences, Lincoln, NE).
We next assessed the effect of 6-HAP on DNA synthesis. […] To directly examine the action of 6-HAP on DNA extension in a cell free system, 25-bp templates and matching 18-bp fluorescence primers were designed to measure DNA extension in vitro by Klenow (exo) DNA polymerase (FIG. 4e).

## ONc1ncnc2nc[nH]c12 [6-HAP, 6-N-hydroxyaminopurine]
M. luteus ATCC4698
  MBC: 12.5 µg/mL (≈ 82.7 µM)
[1]
  BrdU incorporation in S. epidermidis: did not affect
[2]
  BrdU incorporation: inhibited
[3]
  DNA extension, template requiring adenosine (X=T): lack of extension
  DNA extension, template requiring cytosine (X=G): synthesis of the expected extended DNA product
